Test results from PubChem BioAssay (NCI).
Values joined by “and” are separate entries in the source; they are usually repeats but may differ in a detail not shown here. Identical values can stand only once.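 Compound exposure: 48 hours, 5 concentrations, 96-well plates. The concentration for 50% growth inhibition is given as GI50. TGI is the concentration that stops growth completely.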

Columns and labels:
Assay in all cases: NCI-60 cell line screen, 48 h
SR leukemia = test system: SR leukemia
NCI-H23 lung = test system: NCI-H23 lung
MDA-MB-435 = test system: MDA-MB-435
SNB-75 CNS = test system: SNB-75 CNS
A498 renal = test system: A498 renal
SK-OV-3 ovarian = test system: SK-OV-3 ovarian
SW-620 colon = test system: SW-620 colon
LOX IMVI melanoma = test system: LOX IMVI melanoma
M14 melanoma = test system: M14 melanoma
786-0 renal = test system: 786-0 renal

Compound	GI50 (SR leukemia) [µM]	TGI (SR leukemia) [µM]	GI50 (NCI-H23 lung) [µM]	TGI (NCI-H23 lung)	GI50 (MDA-MB-435) [µM]	TGI (MDA-MB-435)	GI50 (SNB-75 CNS) [µM]	TGI (SNB-75 CNS)	GI50 (A498 renal) [µM]	TGI (A498 renal)	GI50 (SK-OV-3 ovarian) [µM]	TGI (SK-OV-3 ovarian)	GI50 (SW-620 colon) [µM]	TGI (SW-620 colon)	GI50 (LOX IMVI melanoma) [µM]	TGI (LOX IMVI melanoma) [µM]	GI50 (M14 melanoma) [µM]	TGI (M14 melanoma)	GI50 (786-0 renal) [µM]	TGI (786-0 renal)
COc1cc2ncn(-c3cc(OCc4ccccc4Cl)c(C(N)=O)s3)c2cc1OC	0.113	> 25	0.202	4.68 µM	0.0745	0.351 µM	0.707	6.47 µM	0.117	3.21 µM	0.274	9.32 µM	0.102	> 18.1 µM	0.169	> 25	0.164	> 25 µM	0.873	> 22.8 µM
CC(C)(C)OC(=O)NC(Cc1ccccc1)C(=O)OCN1C(=O)C2C3C=CC(C2C1=O)C1C2C(=O)N(COC(=O)C(Cc4ccccc4)NC(=O)OC(C)(C)C)C(=O)C2C31 (stereo not given)		4.06		> 100 µM		> 100 µM		58.9 µM		> 90.9 µM		> 95.5 µM		> 100 µM		> 100		> 100 µM		> 100 µM
COC1(C(=O)N2Cc3nc(Cl)nc(N[C@H](C)c4cc(N)cc(C(F)(F)F)c4)c3C2)CCOCC1	2.92	48.8	19.7	72.4 µM	18.6	41.4 µM	17.4	62.9 µM	11.2	58.6 µM	17.7	58.5 µM	24.8	> 86.3 µM	15.6	29.2	17.8	40.6 µM	18.7	68.4 µM
Cc1nn(-c2ccc(F)cc2)c2ncnc(Nc3ccc(NC(=O)Nc4ccc(Cl)c(C(F)(F)F)c4)cc3)c12	3.07	40.5	1.91	4.6 µM	3.26	12.6 µM	1.32	5.41 µM	2.6	7.93 µM	3.8	14.5 µM	2.93	10.8 µM	1.96	4.48	3.03	11.6 µM	1.98	5.85 µM
Cc1cc2nc3c4cc(Cl)ccc4n(CCN(C)C)c3nc2cc1C	0.682	2.88	1.65	3.95 µM	1.69	3.19 µM	0.738	6.24 µM	1.29	2.63 µM	2.75	10.6 µM	0.821	2.25 µM	1.13	2.37	1.49	2.93 µM	1.81	4.22 µM
CC(=O)c1ccc(Nc2cc(-c3ccccc3)nc3c(O)cccc23)cc1	1.59	49.5	12.5	64.7 µM	23.6	65.3 µM	17.9	50.5 µM	25.3	71.7 µM	57.1	> 100 µM	7.06	> 100 µM	14.5	> 100	4.58	33.9 µM	8.8	83.4 µM
O=C(Nc1nc2ccccc2s1)OCC(F)(F)F	> 100	> 100	> 100	> 100 µM	> 100	> 100 µM	> 100	> 100 µM	> 100	> 100 µM	> 100	> 100 µM	> 100	> 100 µM	> 100	> 100	> 100	> 100 µM	> 100	> 100 µM
Clc1ccccc1C(c1ccccc1)(c1ccccc1)n1ccnc1	1.86	6.93	2.88	13.1 µM and 26.3 µM	2.4	10.1 µM and 47.4 µM	2.14	8.72 µM and 35.5 µM	2.15	6.02 µM and 43.8 µM	3.71	13.7 µM and 29.2 µM	3.28	13.3 µM and 40.1 µM	1.69	4.66	2.23	5.46 µM and 29.8 µM	3.05	10.6 µM and 43 µM
CN(C)CC(=O)N1CCC(c2ccc(NC(=O)c3ncc(C#N)[nH]3)c(C3=CCCCC3)c2)CC1	2.58	6.52	5.51	19.5 µM	2.99	12.6 µM	1.25	9.12 µM	9.71	22.4 µM	5.33	17.4 µM	4.98	18.7 µM	3.17	12.7	2.21	4.97 µM	3.22	13.1 µM
CCn1c(-c2nonc2N)nc2c(C#CCN)ncc(OCCCN)c21	> 25	> 25	> 25	> 25 µM	> 25	> 25 µM	> 24.2	> 25 µM	> 18.6	> 25 µM	> 25	> 25 µM	> 25	> 25 µM	> 25	> 25	> 25	> 25 µM	> 25	> 25 µM
COc1ccc(/C=C/C=C(/C#N)C(N)=S)cc1	19.4	> 100	28.7	> 100 µM	21.6	77.1 µM	29.7	99.6 µM	25.1	56.5 µM	96.1	> 100 µM	21.3	61.2 µM	16	37.4	18.8	42.7 µM	33.3	> 100 µM
Brc1cccc(-c2cc(-c3ccc4c(c3)OCCO4)[nH]n2)c1	0.581	136	3.46	53.6 µM	0.186	0.97 µM	0.531	6.58 µM	0.563	3.89 µM	1.69	43.6 µM	0.785	35.3 µM	1.53	30.4	0.729	31.1 µM	2.51	28.4 µM
CN=C(N)N/N=C(\c1ccccc1)c1ccc(Br)cc1	0.31	2.42	0.562	11.8 µM	0.179	0.511 µM	0.387	6.51 µM	0.232	1.01 µM	0.462	12.3 µM	0.417	16.3 µM	0.494	2.97	0.272	0.872 µM	0.523	4.91 µM
